In one test the test system is miR-155. The experiment in a line: miR-155 gene expression in tumors of HPC mice. The note with it: API 25 mg/kg IP 3 times per week for 3-4 weeks, vs vehicle. The class given is in vivo, mouse. The procedure: Earlier studies have shown the anti-tumor activity of API in pre-clinical experimental models of cancer^41, 62-68. The inventors have reported that API increased survival and reduced tumor growth in a heterotopic (H) mouse model of PC (HPC)^55. To investigate if API targets miR-155 and regulates SHIP-1 in the TME of an HPC mouse model, HPC mice were treated with API at a dose of 25 mg/kg (IP) 3 times per week for 3-4 weeks. […] All female C57BL/6 mice (6-8 weeks of age) described in this study were purchased from Envigo (Indianapolis, IN, USA) and were acclimatize for one week in a pathogen-free animal facility (University of South Florida (USF) vivarium) before injections with PC cells. To generate heterotopic pancreatic cancer (HPC) models, mice were subcutaneously injected with 1.5×10^5 murine Panc02 (HPC mice) or 5×10^6 murine UN-KC-6141 cells (KC-HPC mice), in sterile 1× phosphate buffer saline (PBS), in the lower ventral abdomen, while control (CTRL) mice received sterile 1×PBS. […] Relative expression of miR-155 was calculated using the comparative […] method normalized to a mouse endogenous control gene snoRNA202 and human endogenous control gene U6 (Assay IDs: 001232 and 001093).

For test [1], the system named is CD8+ T cells and MHC-II+ cells. Nature of the test: AKOYA-CODEX imaging of tumor sections of KC-HPC mice. The class given is in vivo, mouse. The source says:
Next, the inventors examined the expression and infiltration of CD8^+ T cells and MHC-II^+ cells in the tumor sections of KC-HPC treated with vehicle or API and using AKOYA-CODEX which provides spatial capture of location and phenotype for multiple immune cells in the tumor. […] The inventors then observed, via 2D tSNE, increased CD8^+ T cell expression partially located within the tumor plots for the tumors of KC-HPC-API mice compared with vehicle treated KC-HPC mice (FIG. 15B). The poly-1-lysine coated coverslips containing 5-μm of Fresh Frozen (FF) tissue sections were stored at […] until use. At the staining time, FF tissue sections were baked for 30 min to 1 h at 55° C. According to Akoya Biosciences protocol, the FF tissues were dewaxed, deparaffinized in xylene then rehydrated in descending ethanol concentrations (100% twice, 90%, 70%, 50%, and 30%, respectively) and washed in ddH2O twice, each step for 5 min. Heat-induced epitope retrieval with antigen retrieval solution, pH 6, was performed using the pressure cooker at high-pressure protocol ([…]) for 20 min. After cooling at room temperature (RT) for 30 min to 1 h, the coverslips were washed in ddH2O twice for 2 min. […] The processed data were analyzed using the CODEX-MAV plugin in Image J. Then, nuclei segmentation was performed, followed by gating and clustering of the CD8+ T cells populations. […]

The results in this text go back to patent US20240415804A1, “METHOD OF TREATING PANCREATIC CANCER” (University of South Florida, priority 2022, published 2024).

Molecules are shown by their SMILES.

On to `O=c1cc(-c2ccc(O)cc2)oc2cc(O)cc(O)c12` [API, 40,5,7-Trihydroxyflavone, 5,7-Dihydroxy-2-(4-hydroxyphenyl)-4-benzopyrone], for which, in the test with miR-155, the “miR-155 gene expression in tumor” value is “significantly reduced”. In addition, the “MHC-II+ cells in tumor sections (2D UMAP)” value in test [1] (API treated KC-HPC mice, non-detectable in KC-HPC mice) is reported as “increase”. In test [1] (KC-HPC-API vs vehicle treated KC-HPC mice), the “CD8+ T cell expression in tumor sections (2D tSNE)” value is recorded as “increased”.
